US20060106032A1, “Synthesis of N2 - (substituted arylmethyl) -3- (substituted phenyl) indazoles as novel anti-angiogenic agents” (YUNG SHIN PHARM. IND. CO., LTD., priority 2004, published 2006)

Assays:
[1] = tested on: VEGF-induced angiogenesis; conditions: previous finding; cited from earlier work
[2] = tested on: human umbilial vein endothelial cells (HUVECs); conditions: previous finding; cited from earlier work
[3] = tested on: thrombin-induced Ca++ signal and thromboxane production; conditions: previous work; cited from earlier work
[4] = biological target: T1, protease activated receptor (PAR)-4 (Homo sapiens, UniProt Q96RI0); conditions: previous works; cited from earlier work
T1 sequence (Q96RI0 18-385): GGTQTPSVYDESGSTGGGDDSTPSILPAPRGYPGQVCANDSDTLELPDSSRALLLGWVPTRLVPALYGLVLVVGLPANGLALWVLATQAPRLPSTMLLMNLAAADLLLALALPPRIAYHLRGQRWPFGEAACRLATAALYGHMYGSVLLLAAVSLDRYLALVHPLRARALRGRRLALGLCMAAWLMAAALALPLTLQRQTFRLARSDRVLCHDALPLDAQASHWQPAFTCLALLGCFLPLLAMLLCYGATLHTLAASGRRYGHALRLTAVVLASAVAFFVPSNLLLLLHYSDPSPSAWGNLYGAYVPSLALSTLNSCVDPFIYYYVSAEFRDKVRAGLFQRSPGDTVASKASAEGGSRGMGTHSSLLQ

[5] = tested on: Human umbilical vein endothelial cells (HUVECs); assay: [3H]thymidine incorporation assay: VEGF-induced cell proliferation (DNA synthesis) of HUVECs; assay type: cell-based; conditions: VEGF 10 ng/mL
Description: (§1) Human umbilical vein endothelial cells were incubated in the absence (basal and control) or presence of tested sample (YD-3, 10, 15, 17, 21, 25, 26) with 30 μM, and then vascular endothelial growth factor (VEGF) was added (except for basal) to induce DNA synthesis, which was detected using [^3H] thymidine incorporation assay.
as §1, with “10” for “30”, “inducd” for “induce”, “assay. Means±S.E. (n=5) were presented.” for “assay.”
as §1, with “1” for “30”, “inducd” for “induce”, “assay. Means±S.E. (n=5) were presented.” for “assay.”
(§2) Human umbilical vein endothelial cells (HUVECS) were isolated according to the protocols from Jaffe et al. and obtained from human umbilical cord veins with collagenase and cultured in 75 cm^2 plastic flasks in M199 containing 20% FBS, 15 μg/mL endothelial cell growth supplements (ECGs). Confirmation of their identity as endothelial cells was provided by detection of CD31 (PECAM-1), assessed by immunostaining. Experiments were conducted on HUVECs that had used in passage 2 to 5.
Confluent HUVECs were trypsinized, suspended in DMEM supplemented with 20% FBS, and seeded at 1.0×10^4 cells per well into 96-well plates. After 24 h, the cells were washed twice with PBS and starved with 2% FBS-M199 medium for 24 h. The cells were incubated with or without indicated reagents and growth factors (VEGF; 10 ng/mL) for 24 h and harvested. Before the harvest, cells were incubated with [^3H]thymidine (2 μCi/mL) for 4 h, harvested with Filter-Mate (Packard), and incorporated radioactivity was determined.
The effect of tested compounds on VEGF-induced cell proliferation of HUVECs was assessed with the [^3H]thymidine incorporation assay, and the results were illustrated in FIG. 5-FIG. 7.

[6] = tested on: Human umbilical vein endothelial cells (HUVECs); assay: VEGF-induced tube formation of HUVECs on Matrigel; assay type: cell-based; conditions: FIG. 8
Description: FIG. 8 show photographs of the results of in vitro assay (inhibition of tube formation). Human umbilical vein endothelial cells were cultured onto chamberslide, which was precoated with Matrigel (10 mg/ml). Cells were treated without (basal and control) or with tested sample (YD-3, 10, 15, 17, 21, 25, 26) and then vascular endothelial growth factor (VEGF) was added to induce tube formation. All photographs were taken at 100×magnification.
as §2

[7] = tested on: VEGF-induced angiogenesis in Matrigel plug; assay: In vivo Matrigel plug assay (neovascular formation, hemoglobin concentration); conditions: nude mice, FIG. 9
Description: Nude mice were subcutaneously injected with a Matrigel plug containing 150 ng/ml vascular endothelial growth factor (VEGF). Vehicle or tested sample (YD-3, 10, 15, 17, 21, 25, 26) was orally administered into the mice. After a seven-day administration, the animals were euthanized and the plugs were cut of the mice for the measurement of angiogenic effect using the hemoglobin concentration as the parameter by means of a hemoglobin detection kit (Sigma). Means±S.E. (n=3) were presented. Nude mice (6 weeks of age) were given s.c. injections of 500 μL of Matrigel (Becton Dickinson, Bedford, Mass.) at 4° C. with or without YC-1 and growth factor (150 ng/mL VEGF). After injection, the Matrigel rapidly formed a plug. After 7 days, the skin of the mouse was easily pulled back to expose the Matrigel plug, which remained intact. After quantitative differences were noted and photographed, hemoglobin was measured, as an indication of blood vessel formation, using the Drabkin method (Drabkin reagent kit 525, Sigma, St. Louis, Mo.). The concentration of hemoglobin was calculated from a known amount of hemoglobin assayed in parallel. The in vivo Matrigel plug assay was used in this study to determine quantitative the anti-angiogenic effect of tested compounds.

angiogenesis = assay: Evaluation for anti-angiogenic activities (overall summary); conditions: summary statement
Description: 3-(4-Methylphenyl)-1H-indazole (10) and N^2-(substituted benzyl)-3-(4-methylphenyl)indazoles (15, 17, 21, 25, 26) were evaluated for anti-angiogenic activities.
In this study, 3-(4-methylphenyl)-1H-indazole (10) and five of the above mentioned N^2-regioisomers, namely, compounds 15, 17, 21, 25 and 26 were selected for evaluating their effects on VEGF-induced cell proliferation, on VEGF-induced tube formation of HUVECs in vitro, and on neovascular formation in vivo.

Structure (SMILES)	inhibition of VEGF-induced angiogenesis in Matrigel plug animal model [1]	inhibition of VEGF-induced cell proliferation in HUVECs [2]	inhibition of VEGF-induced migration in HUVECs [2]	inhibition of VEGF-induced tube formation in HUVECs [2]	inhibition of low thrombin-induced Ca++ signal [3]	inhibition of low thrombin-induced thromboxane production [3]	inhibition of PAR-4-dependent activation [4]	inhibitory effect on VEGF-induced cell proliferation of HUVECs ([3H]thymidine incorporation) ([5]; 10 μM, FIG. 6)	inhibitory effect on VEGF-induced cell proliferation of HUVECs ([3H]thymidine incorporation) ([5]; 30 μM, FIG. 5)	inhibitory activity on tube formation compared with other tested compounds and YD-3 [6]	blockage of VEGF-induced tube formation of HUVECs ([6]; Matrigel-coated chamberslide)	anti-angiogenic activity in Matrigel plug assay (hemoglobin concentration) ([7]; 150 ng/ml VEGF plug, oral, seven-day administration)	anti-angiogenic potency in Matrigel plug assay compared with positive control YD-3 [7]	anti-angiogenic activity (overall) (angiogenesis)	melting point	activity on VEGF-induced cell proliferation of HUVECs compared with positive control YD-3 ([5]; 1 μM)
CCOC(=O)c1ccc(-c2nn(Cc3ccccc3)c3ccccc23)cc1 [YD-3, Ethyl 4-(1-benzyl-1H-indazol-3-yl)benzoate]	inhibit	inhibit	inhibit	inhibit	effectively inhibits	effectively inhibits	selective and potent inhibitor	significant inhibitory effect	significant inhibitory effect	–	–	–	–	–	–	–
O=C(O)c1ccc(-c2nn(Cc3ccccc3)c3ccccc23)cc1 [CHS-6, 4-(1-benzyl-1H-indazol-3-yl)benzoic acid]	inhibit	inhibit	inhibit	inhibit	–	–	–	–	–	–	–	–	–	–	–	–
Cc1ccc(Cn2nc3ccccc3c2-c2ccc(C)cc2)cc1 [Compound 21, 2-(4-Methylbenzyl)-3-(4-methylphenyl)-2H-indazole]	–	–	–	–	–	–	–	significant inhibitory effect	significant inhibitory effect	more potent than other tested compounds and YD-3	significant blockage	significant anti-angiogenic activities	superior potency than the positive control YD-3	significant anti-angiogenic activity	107.5 to 109.3 °C	better activity than positive control YD-3
